# Legend:
# honeybees = assay: honeybee repulsion experiment, feeding stations with 50% sucrose; type: in vivo; details: for repellency to honeybees at 24 hours: 2% by weight in 50% sucrose feeder
# Description: FIG. 1 describes the feeding station arrangement (A and B) for the honeybee repulsion experiments described herein. As set forth in FIG. 1, panel (A) sets forth the bee cage positions on the left portion of panel (A) with the randomized feeding station positions on the right portion of panel (A). Panel (B) sets forth an alignment of the randomized feeding station positions with a distance of two meters between feeding stations. A total of eight feeding stations were evaluated at a ten meter distance in front of the respective bee hives. The feeding stations were placed two meters apart from one another.
# Honeybees were trained to deep feeders (eight positions), each containing a 50% sucrose solution for one day. After the honeybees were trained to each feeder, the 50% sucrose feeder at randomized positions 1-8 was replaced with a shallow feeder containing a combination of repelling compounds and a 50% sucrose solution according to Table 3. In accordance with FIGS. 5 and 6, 2% by weight of Camphor oil (T4), Ajowan oil (T5), Camphor powder (T6), Rosemary oil (T7), and 2-Decanone (T8) in combination with a 50% sucrose treatment were added to feeders on day two.
# Table 3 describes active agents evaluated for bee repulsion and their randomized feeding station positions. As described in Table 3, T1 (control), T2 (control), T3 (control), T4 (Camphor oil), T5 (Ajowan oil), T6 (Camphor powder), T7 (Rosemary oil), and T8 (2-Decanone).
# FIG. 5 evaluates the number of bees visiting a respective feed station over a time interval. FIG. 6 sets forth the mean number of honeybees visiting feeding station over a period of four hours.
# [1] = stability test of Poncho combined with Eugenol, clothianidin content by HPLC; type: physicochemical; details: in Poncho combined with Eugenol; up to 54° C. for seven days
# Description: Table 4 describes a stability test with a combination of Eugenol and Poncho evaluated at room temperature, 40° C., and 54° C. at zero time, 3 days, and 7 days as confirmed by high performance liquid chromatography (HPLC).
# [2] = stability test of Poncho 600 combined with α-terpineol, clothianidin content by HPLC; type: physicochemical; details: in Poncho combined with alpha-terpineol; up to 54° C. for eight days
# Description: Table 5 describes a stability test with a combination of α-terpineol and Poncho 600 evaluated at room temperature, 40° C., and 54° C. at zero time, 2 days, and 8 days as confirmed by HPLC.
SMILES,repellency to honeybees at 24 hours (honeybees),repellency to honeybees at 24 hours (honeybees; listed as 2-decanone),"repellency to honeybees over the full 4 hour assessment period (honeybees; in 50% sucrose feeder, 4 hour assessment period)",chemical stability of clothianidin content [1],chemical stability of clothianidin content [2]
"CCCCCCCCC(C)=O [Compound 2-Decanone, 2-decanone]",exhibited repellency,still repellent,highly repellent,,
CN/C(=N\[N+](=O)[O-])NCc1cnc(Cl)s1 [clothianidin],,,,exhibited chemical stability,exhibited chemical stability

# From patent US20140271534A1, “COMPOUNDS, COMPOSITIONS, AND METHODS FOR REPELLING AN INSECT FROM AN AREA, ARTICLE, AND/OR STRUCTURE” (BAYER CROPSCIENCE LP, priority 2013, published 2014)
